Test [1] addresses T1, NgTet1 (Naegleria gruberi, UniProt D2W6T1).
T1 construct: His6-tagged full-length Naegleria gruberi NgTet1 (321 a. a.) protein with a thrombin cleavage site; made in house; host or cells: E. coli BL21(DE3)
T1 sequence (D2W6T1 1-321): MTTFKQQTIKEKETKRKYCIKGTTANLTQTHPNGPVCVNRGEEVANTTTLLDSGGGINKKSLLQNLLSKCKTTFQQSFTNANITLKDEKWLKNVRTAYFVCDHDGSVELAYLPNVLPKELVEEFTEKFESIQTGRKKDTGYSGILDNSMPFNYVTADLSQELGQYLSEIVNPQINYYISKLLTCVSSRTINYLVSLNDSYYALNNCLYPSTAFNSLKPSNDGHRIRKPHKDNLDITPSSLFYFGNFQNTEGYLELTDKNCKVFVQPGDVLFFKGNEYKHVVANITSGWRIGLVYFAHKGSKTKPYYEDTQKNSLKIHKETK
As to the kind of experiment: biochemical. The note with it: for potency change in the presence of non-substrate 5HC DNA: uncoupled 2OG turnover; for IC50: 5 μM NgTet1, 50 μM 2OG. Here is the method:
(§1) Activity was normalised against reactions containing vehicle (DMSO). […] AS data shown as the mean of three experimental replicates (n = 3; mean ± SD); ^1H NMR data plotted from two independent replicates (n = 2); tabulated data reported as the mean of two and three independent replicates for ^1H NMR and AS, respectively (n = 2–3, SD reported for n = 3). N. d.: not determined; AS: AlphaScreen.
(§2) All ^1H NMR spectra were recorded at 25 °C using D2O as a reference for internal deuterium lock on a Bruker Avance III 700 MHz equipped with an inverse TCI cryoprobe in 3 or 5 mm diameter tubes with a total sample volume of 160 or 565 μL, respectively. The water signal was reduced using Perfect Echo excitation sculpting suppression. Chemical shifts are reported in ppm relative to D2O (δH = 4.70 ppm).
NgTet1 was pre-incubated with inhibitor dilution series in DMSO-d6 at room temperature for 10 min (50 mM Tris-d11 [pH 7.5], 2% v/v DMSO-d6). Reactions were initiated by the addition of appropriate cofactors and DNA. […] The reactions were quenched by the addition of 9 mM NOG and 9 mM ZnCl2 in 90 mM Tris-d11 [pH 7.5] (20 μL) within the enzyme linear activity window (determined in Figure. S10). Samples were transferred to NMR tubes and subjected to ^1H NMR analysis. Data were processed as described above. Inhibition data was normalised to reactions containing vehicle only (1% v/v DMSO-d6) and fitted using “log(inhibitor) vs. response - Variable slope (four parameters)” non-linear regression model on GraphPad Prism 5.
Activity was normalised against reactions containing vehicle only (100% activity). Data is shown as the mean of 2 independent replicates (n = 2; […]
Fig. S10 Determination of linear NgTet1 enzymatic activity windows for inhibitor characterisation. a 1H NMR succinate detection time courses with no DNA, 5HC DNA (double- […]
complementary 5'-ACC AC5mC GGT GGT-3'). b AlphaScreen 5hmC detection time course using […]
courses shown. 1H NMR reaction conditions: 5 μM NgTet1, 2 mM sodium L-ascorbate, 100 μM […]
v/v D2O. DNA was added to a final concentration of 20 μM of double-stranded DNA. […]

For test [2], the target named is T1, NgTet1. As to the kind of experiment: biochemical. Particulars: for normalised activity, %: AlphaScreen. As for the experimental part: (Fig. 5a), were screened for inhibitory activity against NgTet1.
as §1
Compounds in DMSO (100 nL) were pre-dispensed in a logarithmically linear concentration gradient onto 384-well ProxiPlates using an Echo® 550 acoustic liquid handler (Labcyte). NgTet1 was pre-incubated with the inhibitor dilution series in DMSO at room temperature for 10 min. Reactions were initiated by the addition of appropriate cofactors and DNA. […] The reactions were quenched by the addition of 30 mM EDTA (pH 4.2), 358 mM NaCl (5 μL) within the enzyme linear activity window (determined in Fig. S10). Concurrently, a mixture containing the anti-^5hmC antibody (1:2000 dilution) and AlphaScreen beads (1:62.5 dilution) in assay buffer was prepared and incubated at room temperature for 30 min. The AlphaScreen bead/antibody mixture was added to the quenched NgTet1 reactions (5 μL), and the complete mixture was incubated at room temperature for 1 h. Chemiluminescence was measured on a PHERAstar FS/FSX (BMG Labtech) equipped with an AlphaScreen 680 570 module. All AlphaScreen bead manipulations were performed under subdued lighting. Inhibition data was normalised to reactions containing vehicle only (1% v/v DMSO) and fitted using “log(inhibitor) vs. response—Variable slope (four parameters)” non-linear regression model on GraphPad Prism 5.
Background: Alpha assays give light when donor and acceptor beads are brought close together.

Test [3] addresses T1, NgTet1. The class given is biochemical. The note with it: for Km: read-out: KM^app (2OG). Here is the method:
Double-stranded 12 bp DNA oligomers were added at a final concentration of 20 µM. […]
Double-stranded DNA oligomers were added at a final concentration of 20 µM. […]
as §2
Spectrometer settings were determined using a control sample containing all reaction components excluding enzyme. TET enzyme was added to an identical sample, and the resulting assay mixture was transferred to an NMR tube before deposition into the instrument. […] Spectrum recordings were carried out consecutively without delay. Data were processed using automated routines on MestReNova v14.2.0; signals of interest were integrated with absolute intensity scaling. ^1H NMR time courses reported in figures are representative results from two or three independent replicates.

The mark [4] stands for this setting: 5HC DNA, NMR, -Log[inhibitor] (M) 3.
The mark [5] stands for this setting: 5HC DNA, NMR, -Log[inhibitor] (M) 4.
The mark [6] stands for this setting: 5HC DNA, NMR, -Log[inhibitor] (M) 4.5.
[7] abbreviates: 5HC DNA, NMR, -Log[inhibitor] (M) 5.
Where [8] appears, read: 5HC DNA, NMR, -Log[inhibitor] (M) 5.5.
[9] abbreviates: 5HC DNA, NMR, -Log[inhibitor] (M) 6.
[10] abbreviates: 5HC DNA, NMR, -Log[inhibitor] (M) 6.5.
[11] abbreviates: 5HC DNA, NMR, -Log[inhibitor] (M) 7.
The mark [12] stands for this setting: 5HC DNA, NMR, -Log[inhibitor] (M) 7.5.
The mark [13] stands for this setting: IC50, 5mC DNA, NMR, 2OG decarboxylation with 20 µM 5mC DNA.
Where [14] appears, read: IC50, No DNA, NMR, uncoupled 2OG decarboxylation, no DNA.

Where “and” joins values, the source holds several entries; their conditions need not be identical. Equal values may be shown once. Read-outs that look alike come from different tables or passages of the source. Bounds are passed on as bounds.

In the case of `O=C(O)c1ccnc(C(=O)O)c1` [2,4-PDCA, 2,4-pyridinedicarboxylic acid], the “potency change in the presence of non-substrate 5HC DNA” value on NgTet1 [1] (1H NMR) is below 2 fold. The IC50 on NgTet1 [1] (2OG decarboxylation with 20 µM 5HC DNA, read-out: IC50, 5HC DNA, NMR) worked out at 4.27 µM; at NgTet1 [1] (setting [13]), 2.45 µM; on NgTet1 [1] (setting [14]) it was 8.13 µM; at NgTet1 [2] (read-out: IC50, 5mC ssDNA, AS) it was 3.24 µM. The “normalised activity, %” value is -0.17% and 2.97% at NgTet1 [1] (setting [4]); 6.05% at NgTet1 [1] (5HC DNA, NMR, -Log[inhibitor] (M) 3.5); 6.05% and 7.57% on NgTet1 [1] (setting [5]); 13.51% at NgTet1 [1] (setting [6]); 30.08% on NgTet1 [1] (setting [7]); 63.79% and 61.71% on NgTet1 [1] (setting [8]). Also, the “normalised activity, %” value at NgTet1 [1] (setting [9]) is 84.73% and 86.47%; at NgTet1 [1] (setting [10]) it was 94.82% and 93.19%; on NgTet1 [1] (setting [11]), 100.33%; on NgTet1 [1] (setting [12]), 99.56% and 98%; on NgTet1 [1] (5mC DNA, NMR, 2,4-PDCA series -Log[inhibitor] (M) 3) it was 1.811% and 1.747%; at NgTet1 [1] (5mC DNA, NMR, -Log[inhibitor] (M) 3.47712), 1.338% and 1.107%. Also, the “normalised activity, %” value was 2.094% and 0.5576% on NgTet1 [1] (5mC DNA, NMR, -Log[inhibitor] (M) 3.95424); 2.845% and 5.31% on NgTet1 [1] (5mC DNA, NMR, -Log[inhibitor] (M) 4.43136); 7.1385% and 9.765% on NgTet1 [1] (5mC DNA, NMR, -Log[inhibitor] (M) 4.90848); 30.9766% and 31.0028% on NgTet1 [1] (5mC DNA, NMR, -Log[inhibitor] (M) 5.38561); 71.7609% and 72.2416% at NgTet1 [1] (5mC DNA, NMR, -Log[inhibitor] (M) 5.86273); 92.2674% and 93.2727% at NgTet1 [1] (5mC DNA, NMR, -Log[inhibitor] (M) 6.33985). Further, the “normalised activity, %” value at NgTet1 [1] (5mC DNA, NMR, -Log[inhibitor] (M) 6.81697) is 96.6317% and 94.5918%; at NgTet1 [1] (5mC DNA, NMR, -Log[inhibitor] (M) 7.29409), 100.253% and 99.2143%; at NgTet1 [1] (No DNA, NMR, -Log[inhibitor] (M) 3), 1.858% and 5.513%; on NgTet1 [1] (No DNA, NMR, -Log[inhibitor] (M) 3.47712), 5.794% and 4.915%; on NgTet1 [1] (No DNA, NMR, -Log[inhibitor] (M) 3.95424), 6.819% and 9.688%; at NgTet1 [1] (No DNA, NMR, -Log[inhibitor] (M) 4.43136), 23.271% and 23.2057%. The “normalised activity, %” value on NgTet1 [1] (No DNA, NMR, -Log[inhibitor] (M) 4.90848) is 39.7721% and 42.1215%; on NgTet1 [1] (No DNA, NMR, -Log[inhibitor] (M) 5.38561), 73.0359% and 62.1963%; on NgTet1 [1] (No DNA, NMR, -Log[inhibitor] (M) 5.86273) it was 95.5986% and 84.3948%; on NgTet1 [1] (No DNA, NMR, -Log[inhibitor] (M) 6.33985), 102.544% and 92.4597%; on NgTet1 [1] (No DNA, NMR, -Log[inhibitor] (M) 6.81697), 101.45% and 102.432%; at NgTet1 [1] (No DNA, NMR, -Log[inhibitor] (M) 7.29409) it was 100.407% and 97.5514%. Also, the “normalised activity, %” value on NgTet1 [2] (-Log[inhibitor] (M) 8.03235) was 118.908% and 105.933% and 106.512% and 100% and 103.458% and 100.779% and 97.3678%.
Turning to `O=C(O)CCC(=O)C(=O)O` [2OG, 2-oxoglutarate], the “decrease of 2OG KM^app on substrate saturation” value on NgTet1 [3] (20 µM 5mC DNA vs no DNA) is around 2 fold. In addition, at NgTet1 [3] (No DNA), the “Vmax^app” value worked out at 2.83 µM/min and the “kcat^app” value worked out at 0.57 min⁻¹. The Km on NgTet1 [3] (No DNA, 5 μM NgTet1) amounted to 284 µM. In addition, on NgTet1 [3] (with 20 µM 5mC DNA), the Km amounted to 150 µM and the “Vmax^app” value stood at 8.31 µM/min.
For the molecule `O=C(O)c1ccc(O)c2ncccc12` [IOX1, 5-carboxy-8-hydroxyquinoline], the “potency change in the presence of non-substrate 5HC DNA” value at NgTet1 [1] (1H NMR) was below 2 fold. Besides, the “normalised activity, %” value is 3.36% and 6.05% at NgTet1 [1] (setting [4]); 65.88% and 69.85% at NgTet1 [1] (setting [5]); 102.42% and 107.78% at NgTet1 [1] (setting [6]); 115.52% and 112.71% at NgTet1 [1] (setting [7]); 111.12% and 108.5% on NgTet1 [1] (setting [8]); 104.59% and 105.6% on NgTet1 [1] (setting [9]). Also, the “normalised activity, %” value on NgTet1 [1] (setting [10]) is 111.93% and 98%; at NgTet1 [1] (setting [11]), 104.59% and 103.37%; on NgTet1 [1] (setting [12]) it was 102.45% and 101.86%; on NgTet1 [2] (-Log[inhibitor] (M) 4.00432), -0.5677% and -0.5665% and -1.091%; on NgTet1 [2] (-Log[inhibitor] (M) 4.5272), 43.4249% and 52.8284% and 51.0837%; at NgTet1 [2] (-Log[inhibitor] (M) 5.00432), 78.4888% and 85.3739% and 75.186%. The “normalised activity, %” value is 80.6565% and 92.476% and 89.0303% at NgTet1 [2] (-Log[inhibitor] (M) 5.60638); 91.4843% and 93.7065% and 96.6507% on NgTet1 [2] (-Log[inhibitor] (M) 6.0945); 100.743% and 110.536% and 100.94% on NgTet1 [2] (-Log[inhibitor] (M) 6.61738); 88.4496% and 111.251% and 97.2074% on NgTet1 [2] (-Log[inhibitor] (M) 7.0945); 87.9129% and 106.34% and 94.3692% at NgTet1 [2] (-Log[inhibitor] (M) 7.69656); 99.4426% and 116.115% and 101.926% at NgTet1 [2] (-Log[inhibitor] (M) 8.20844). Further, the “normalised activity, %” value on NgTet1 [2] (-Log[inhibitor] (M) 8.73132) was 100% and 102.574%. Also, at NgTet1 [1] (5mC DNA substrate-saturating conditions, 1H NMR), the “potency decreased relative to AS assay” value is 5 fold. Also, the IC50 at NgTet1 [1] (IC50, 5HC DNA, NMR, 2OG decarboxylation with 20 µM 5HC DNA) amounted to 110 µM; at NgTet1 [1] (setting [13]), 123 µM; against NgTet1 [1] (setting [14]), 57.5 µM; against NgTet1 [2], 26.3 µM.

One may read the IC50 as the point on the concentration scale where inhibition reaches its midpoint. Broadly, the Km is the substrate concentration at which the rate is half of its maximum.
